row,Structure (SMILES),melting point
1,CC[C@H](NC(=O)COc1ccc2c(c1)Nc1ccccc1S2)C(=O)N[C@@H](CC(C)C)C(=O)N[C@H]1CCOC1OC (stereo partly drawn),164 to 165 °C
2,CC(C)CN(CC(=O)N[C@H]1CCOC1O)C(=O)CNC(=O)COc1ccc2c(c1)Nc1ccccc1S2 (stereo partly drawn),122 to 124 °C
3,COC1OCC[C@@H]1NC(=O)[C@H](CC(C)C)NC(=O)CN(C)C(=O)COc1ccc2c(c1)Nc1ccccc1S2 (stereo partly drawn),92 to 95 °C
4,COC1OCC[C@@H]1NC(=O)[C@H](CC(C)C)NC(=O)[C@@H](NC(=O)COc1ccc2c(c1)Nc1ccccc1S2)[C@@H](C)O (stereo partly drawn),92 to 93 °C
5,COC1OCC[C@@H]1NC(=O)[C@H](CC(C)C)NC(=O)C(C)(C)NC(=O)COc1ccc2c(c1)Nc1ccccc1S2 (stereo partly drawn),119 to 120 °C
6,"CC(C)C[C@H](NC(=O)CNC(=O)c1ccc2c(c1)Nc1ccccc1S2)C(=O)N[C@H]1CCOC1O (stereo partly drawn) [Example 7, N-(10H-phenothiazin-2-ylcarbonyl)glycyl-N^1-[(3S)-2-hydroxytetrahydrofuran-3-yl]-L-leucinamide]",126 to 126.5 °C
7,COC1OCC[C@@H]1NC(=O)[C@H](CC(C)C)NC(=O)[C@H](CC(C)C)NC(=O)c1ccc2c(c1)Nc1ccccc1S2 (stereo partly drawn),180 to 180.5 °C
8,COC1OCC[C@@H]1NC(=O)[C@H](CC(C)C)NC(=O)[C@H](CCCCNC(=O)OCc1ccccc1)NC(=O)c1ccc2c(c1)Nc1ccccc1S2 (stereo partly drawn),102 to 103 °C
9,COC1OCC[C@@H]1NC(=O)[C@H](CC(C)C)NC(=O)[C@H](C)NC(=O)COc1ccc2c(c1)Nc1ccccc1S2 (stereo partly drawn),195 to 196 °C
10,COC1OCC[C@@H]1NC(=O)[C@H](CC(C)C)NC(=O)[C@@H]1CCCN1C(=O)c1ccc2c(c1)Nc1ccccc1S2 (stereo partly drawn),243 to 243.5 °C
11,COC1OCC[C@@H]1NC(=O)[C@H](CC(C)C)NC(=O)[C@@H](NC(=O)COc1ccc2c(c1)Nc1ccccc1S2)C(C)C (stereo partly drawn),240 to 241 °C
12,COC1OCC[C@@H]1NC(=O)[C@H](CC(C)C)NC(=O)[C@H](NC(=O)COc1ccc2c(c1)Nc1ccccc1S2)C(C)C (stereo partly drawn),204 to 206 °C
13,COC1OCC[C@@H]1NC(=O)[C@H](CC(C)C)NC(=O)CNC(=O)COc1ccc2c(c1)Nc1ccccc1S2 (stereo partly drawn),181 to 182 °C
14,COC1OCC[C@@H]1NC(=O)[C@H](CC(C)C)NC(=O)[C@@H](NC(=O)COc1ccc2c(c1)Nc1ccccc1S2)C(C)(C)C (stereo partly drawn),152 to 153 °C
15,CCC[C@H](NC(=O)COc1ccc2c(c1)Nc1ccccc1S2)C(=O)N[C@@H](CC(C)C)C(=O)N[C@H]1CCOC1OC (stereo partly drawn),225 to 226 °C
16,COC1OCC[C@@H]1N(C(=O)[C@@H](NC(=O)COc1ccc2c(c1)Nc1ccccc1S2)c1ccccc1)C(=O)[C@@H](N)CC(C)C (stereo partly drawn),215 to 217 °C

# Further lines, results first:
row,melting point,Structure (SMILES)
1,207 to 208 °C,"NC(=O)[C@H](Cc1ccccc1)N(C(=O)CNC(=O)COc1ccc2c(c1)Nc1ccccc1S2)[C@H]1CCOC1O (stereo partly drawn) [Example 57, N-[(10H-phenothiazin-2-yloxy)acetyl]glycyl-N^1-[(3S)-2-hydroxytetrahydrofuran-3-yl]-L-phenylalaninamide]"
2,184 to 186 °C,"CC(C)C[C@H](NC(=O)CNC(=O)COc1ccc2c(c1)Nc1ccccc1S2)C(=O)N[C@H]1CCOC1O (stereo partly drawn) [Example 41, N-[(10H-phenothiazin-2-yloxy)acetyl]-glycyl-N^1-[(3S)-2-hydroxytetrahydrofuran-3-yl]-L-leucinamide]"
3,135 to 136 °C,"CC(C)C[C@H](NC(=O)[C@H](COC(C)(C)C)NC(=O)Cc1ccc2c(c1)Nc1ccccc1S2)C(=O)N[C@H]1CCOC1O (stereo partly drawn) [Example 17, O-(tert-butyl)-N-(10H-phenothiazin-2-ylacetyl)-L-seryl-N^1-[(3S)-2-hydroxytetrahydrofuran-3-yl]-L-leucinamide]"
4,160 to 161 °C,"CC[C@H](NC(=O)COc1ccc2c(c1)Nc1ccccc1S2)C(=O)N(C(=O)[C@@H](N)CC(C)C)[C@H]1CCOC1O (stereo partly drawn) [Example 48, N^1-[(3S)-2-hydroxytetrahydrofuran-3-yl]-N^1-((2S)-2-{[(10H-phenothiazin-2-yloxy)acetyl]amino}butanoyl)-L-leucinamide]"
5,138 to 140 °C,CC(C)C[C@H](NC(=O)C(C)(C)NC(=O)COc1ccc2c(c1)Nc1ccccc1S2)C(=O)N[C@H]1CCOC1O (stereo partly drawn) [Example 54]
6,144 to 144.5 °C,"CC(C)C[C@H](NC(=O)c1ccc2c(c1)Nc1ccccc1S2)C(=O)N[C@@H](CC(C)C)C(=O)N[C@H]1CCOC1O (stereo partly drawn) [Example 8, N-(10H-phenothiazin-2-ylcarbonyl)leucyl-N^1-[(3S)-2-hydroxytetrahydrofuran-3-yl]-L-leucinamide]"
7,141.5 to 142 °C,"CC(C)C[C@H](NC(=O)COc1ccc2c(c1)Nc1ccccc1S2)C(=O)N[C@@H](CC(C)C)C(=O)N[C@H]1CCOC1O (stereo partly drawn) [Example 40, N-[(10H-phenothiazin-2-yloxy)acetyl]-L-leucyl-N^1-[(3S)-2-hydroxytetrahydrofuran-3-yl]-L-leucinamide]"
8,144 to 146 °C,"CC(C)C[C@H](NC(=O)[C@H](C)NC(=O)COc1ccc2c(c1)Nc1ccccc1S2)C(=O)N[C@H]1CCOC1O (stereo partly drawn) [Example 42, N-[(10H-phenothiazin-2-yloxy)acetyl]-L-alanyl-N^1-[(3S)-2-hydroxytetrahydrofuran-3-yl]-L-leucinamide]"
9,215 to 217 °C,"C[C@H](NC(=O)Cc1ccc2c(c1)Nc1ccccc1S2)C(=O)N[C@@H](CC1CCCCC1)C(=O)N[C@H]1CCOC1O (stereo partly drawn) [Example 18, N-(10H-phenothiazin-2-ylacetyl)-L-alanyl-3-cyclohexyl-N^1-[(3S)-2-hydroxytetrahydrofuran-3-yl]-L-alaninamide]"
10,195 to 196 °C,"CC(C)C[C@H](NC(=O)[C@@H](NC(=O)COc1ccc2c(c1)Nc1ccccc1S2)[C@@H](C)O)C(=O)N[C@H]1CCOC1O (stereo partly drawn) [Example 51, N-[(10H-phenothiazin-2-yloxy)acetyl]-L-threonyl-N^1-[(3S)-2-hydroxytetrahydrofuran-3-yl]-L-leucinamide]"
11,144.5 to 145 °C,"CC(C)C[C@H](NC(=O)[C@@H]1CCCN1C(=O)c1ccc2c(c1)Nc1ccccc1S2)C(=O)N[C@H]1CCOC1O (stereo partly drawn) [Example 10, 1-(10H-phenothiazin-2-ylcarbonyl)-L-prolyl-N^1-[(3S)-2-hydroxytetrahydrofuran-3-yl]-L-leucinamide]"
12,128 to 130 °C,"CC(C)C[C@H](NC(=O)[C@H](CO)NC(=O)COc1ccc2c(c1)Nc1ccccc1S2)C(=O)N[C@H]1CCOC1O (stereo partly drawn) [Example 50, N-[(10H-phenothiazin-2-yloxy)acetyl]-L-seryl-N^1-[(3S)-2-hydroxytetrahydrofuran-3-yl]-L-leucinamide]"
13,212 to 215 °C,"O=C(COc1ccc2c(c1)Nc1ccccc1S2)NCC(=O)N[C@@H](CC1CCCCC1)C(=O)N[C@H]1CCOC1O (stereo partly drawn) [Example 56, N-[(10H-phenothiazin-2-yloxy)acetyl]glycyl-3-cyclohexyl-N^1-[(3S)-2-hydroxytetrahydrofuran-3-yl]-L-alaninamide]"
14,200 to 201 °C,"CC(C)[C@H](NC(=O)CNC(=O)COc1ccc2c(c1)Nc1ccccc1S2)C(=O)N[C@H]1CCOC1O (stereo partly drawn) [Example 55, N-[(10H-phenothiazin-2-yloxy)acetyl]glycyl-N^1-[(3S)-2-hydroxytetrahydrofuran-3-yl]-L-valinamide]"
15,168 to 168.5 °C,"CC(C)C[C@H](NC(=O)Cc1ccc2c(c1)Nc1ccccc1S2)C(=O)N[C@@H](CC(C)C)C(=O)N[C@H]1CCOC1O (stereo partly drawn) [Example 16, N-(10H-phenothiazin-2-ylacetyl)-L-leucyl-N^1-[(3S)-2-hydroxytetrahydrofuran-3-yl]-L-leucinamide]"
16,159 to 161 °C,"C=CC(NC(=O)COc1ccc2c(c1)Nc1ccccc1S2)C(=O)NC(CC(C)C)C(=O)NC1CCOC1O [Example 53, N^1-[(3S)-2-hydroxytetrahydrofuran-3-yl]-N^2-((2S)-2-{[(10H-phenothiazin-2-yloxy)-acetyl]amino}goal-3-enoyl)-L-leucinamide]"
17,137 to 138 °C,"CC(C)C[C@H](NC(=O)[C@@H](NC(=O)COc1ccc2c(c1)Nc1ccccc1S2)c1ccccc1)C(=O)N[C@H]1CCOC1O (stereo partly drawn) [Example 52, N^1-[(3S)-2-hydroxytetrahydrofuran-3-yl]-N^2-((2S)-2-{[(10H-phenothiazin-2-yloxy)acetyl]amino}-2-phenylethanoyl)-L-leucinamide]"
18,109 to 109.5 °C,"CC(C)C[C@H](NC(=O)[C@H](CCCCNC(=O)OCc1ccccc1)NC(=O)c1ccc2c(c1)Nc1ccccc1S2)C(=O)N[C@H]1CCOC1O (stereo partly drawn) [Example 9, N 6-[(benzyloxy)carbonyl]-N^2-(10H-phenothiazin-2-ylcarbonyl)lysyl-N^1-[(3S)-2-hydroxytetrahydrofuran-3-yl]-L-leucinamide]"
19,161 to 162 °C,"CC(C)C[C@H](NC(=O)CCNC(=O)COc1ccc2c(c1)Nc1ccccc1S2)C(=O)N[C@H]1CCOC1O (stereo partly drawn) [Example 44, N-[(10H-phenothiazin-2-yloxy)acetyl]-β-alanyl-N^1-[(3S)-2-hydroxytetrahydrofuran-3-yl]-L-leucinamide]"
20,205 to 206 °C,"CC(C)C[C@H](NC(=O)[C@@H](NC(=O)COc1ccc2c(c1)Nc1ccccc1S2)C(C)C)C(=O)N[C@H]1CCOC1O (stereo partly drawn) [Example 43, N-[(10H-phenothiazin-2-yloxy)acetyl]-L-valyl-N^1-[(3S)-2-hydroxytetrahydrofuran-3-yl]-L-leucinamide]"
21,145 to 146 °C,"CC(C)C[C@H](NC(=O)[C@H](NC(=O)COc1ccc2c(c1)Nc1ccccc1S2)C(C)C)C(=O)N[C@H]1CCOC1O (stereo partly drawn) [Example 46, N-[(10H-phenothiazin-2-yloxy)acetyl]-D-valyl-N^1-[(3S)-2-hydroxytetrahydrofuran-3-yl]-L-leucinamide]"
22,137 to 138 °C,"CC(C)C[C@H](NC(=O)CN(C)C(=O)COc1ccc2c(c1)Nc1ccccc1S2)C(=O)N[C@H]1CCOC1O (stereo partly drawn) [Example 45, N-methyl-N-[(10H-phenothiazin-2-yloxy)acetyl]glycyl-N^1-[(3S)-2-hydroxytetrahydrofuran-3-yl]-L-leucinamide]"
23,195 to 196 °C,"CCC[C@H](NC(=O)COc1ccc2c(c1)Nc1ccccc1S2)C(=O)N[C@@H](CC(C)C)C(=O)N[C@H]1CCOC1O (stereo partly drawn) [Example 49, N-[(10H-phenothiazin-2-yloxy)acetyl]-L-norvalyl-N^1-[(3S)-2-hydroxytetrahydrofuran-3-yl]-L-leucinamide]"

# From US7384933B2, “Derivatives of 2-hydroxytetrahydrofuran and their use as medicaments” (priority 2003, dated 2008)
